Results published in patent US20090042883A1, “ANTITUMOR AGENT” (KYOWA HAKKOKOGYO CO., priority 2005, published 2009).

Legend:
[1] = test system: human lung cancer NCI-H596 cells; test: Antitumor effect in vivo, mouse model transplanted with human lung cancer NCI-H596 cells; details: NCI-H596 subcutaneous transplant in BALB/cAJc1-nu mice; 50 mg/kg intravenously twice a day on days 0 to 4; tumor volume to day 17
Protocol: Using an experimental system in which human lung cancer NCI-H596 cells were transplanted into immunodeficient mice as disease models of solid tumor, the antitumor effect in vivo of Compound 33 was examined.
NCI-H596 cells were cultured and grown in RPMI1640 medium containing 10% fetal calf serum (FCS) in a 5% carbon dioxide incubator at 37° C., and the cultured cells (1×10^7 cells/mouse) were subcutaneously, ventrally transplanted into BALB/cAJc1-nu mice (CLEA Japan). From the mice in which tumors were formed, the tumors were removed. The tumor tissues were cut into small pieces of about 8 mm^3, which were subcutaneously, ventrally transplanted, using a trocar needle, into BALB/cAJc1-nu mice (CLEA Japan) to be used for experiment. Seventeen days after the transplantation, the major axis and minor axis of the tumors subcutaneously grown were measured with slide calipers, and the tumor volume was determined according to the following formula: […]
(§1) At the same time, the body weight of each mouse was measured, and the mice were divided into two groups, i.e., a group to be administered with drugs and a group not to be administered with drugs, such that each group consists of five mice with various weights and tumor volumes. This day was defined as day 0 of the administration test. Drug administration was started in the following manner. […]

[2] = test system: human prostate cancer 22Rv1 cells; test: Antitumor effect in vivo, mouse model transplanted with human prostate cancer 22Rv1 cells; details: 22Rv1 subcutaneous transplant in BALB/cAJc1-nu mice; 100 mg/kg intravenously twice a day on days 0 to 4; tumor volume to day 17
Protocol: Using an experimental system in which human prostate cancer 22Rv1 cells were transplanted into immunodeficient mice as disease models of solid tumor, the antitumor effect in vivo of Compound 33 was examined.
(§2) 22Rv1 cells were cultured and grown in RPMI1640 medium containing 10% fetal calf serum (FCS) in a 5% carbon dioxide incubator at 37° C., and the cultured cells (1×10^7 cells/mouse) were subcutaneously, ventrally transplanted into BALB/cAJc1-nu mice (CLEA Japan). Seventeen days after the transplantation, the major axis and minor axis of the tumors subcutaneously grown were measured with slide calipers, and the tumor volume was determined according to the following formula: […]
as §1

[3] = test system: human chronic myelocytic leukemia K562 cells; test: Antitumor effect in vivo, mouse model transplanted with human chronic myelocytic leukemia K562 cells; details: K562 subcutaneous transplant in Fox C.B-17/Icr-scid mice; 100 mg/kg intravenously twice a day on days 0, 1, 2, 7, 8, 9; tumor volume to day 22
Protocol: Using an experimental system in which human chronic myelocytic leukemia K562 cells were transplanted into immunodeficient mice as disease models of hematopoietic tumor, the antitumor effect in vivo of Compound 33 was examined.
as §2, with “One day before the transplantation of cancer cells, an anti-asialo GM1 antibody was intraabdominally administered to Fox C.B-17/Icr-scidJc1 mice (CLEA Japan) in an amount of 0.3 mg per mouse. K562” for “22Rv1”, “the mice. Ten” for “BALB/cAJc1-nu mice (CLEA Japan). Seventeen”
as §1

CCc1c(O)cc(O)c(C(=O)c2ccc(OC)cc2)c1CC(=O)N(CCO)CCOC [Compound 33]
apparent suppression of tumor growth: antitumor effect in vivo (tumor volume, FIG. 2) [1] | antitumor effect in vivo (tumor volume, FIG. 3) [2] | antitumor effect in vivo (tumor volume, FIG. 1) [3]
